From US5157052A, “Method for inhibiting IgE production” (priority 1990, dated 1992)

Tested on: Thy 1
Assay: Splenocyte cell surface density/distribution (FACS): Thy 1
Type: in vivo, mouse (Balb/c female)
Method: Another (Group B) is injected with 20 μg (±) methyl 11α,16-dihydroxy-16-methyl-9-oxoprosta-5Z,13E-dien-1-oate as in Example 13. […] A 3 cm incision is made with a scalpel above the left hip, and the spleen is cut free from adjoining tissue and placed in a 100 mn plastic culture dish containing 10 ml PBS. The splenic cells are then made into a suspension, by rubbing the spleens between the rough, frosted ends of microscope slides repeatedly until the only remaining particulate matter is connective tissue. Cells are transferred to a 15 ml conical polystyrene tube and centrifuged in a centrifuge at 1200 rpm for 5 minutes. The supernatant is discarded by aspiration and the cell pellet is resuspended in 10 ml PBS, then centrifuged at 1200 rpm for 5 minutes. The supernatant is aspirated and the cell pellet is resuspended in 15 mM Tris, 140 mM Ammonium Chloride, to lyse red blood cells. After incubating at room temperature for 10 minutes the cell suspension is centrifuged at 1200 rpm for 10 minutes. The supernatant is discarded and the cell pellet is resuspended in 10 ml FACS Buffer (PBS containing 0.1% BSA and 0.1% Sodium Azide). The cell suspension is filtered through sterile glass wool plugged in the top of a pasteur pipet. Cells in the flow through are counted using a hemacytometer, then the cell suspension is centrifuged at 1200 rpm for 5 minutes. The supernatant is discarded and the cell pellet is resuspended in a volume of FACS Buffer that will yield 4×10^7 cells/ml. 10 μl (4×10^5 cells) is added to each well of a 96-well V-bottom plate. 25 μl of diluted monoclonal antibody directed against splenocyte cell surface proteins is added to each well: Major Histocompatability Complex (MHC) Class II (M5114, ATCC, Rockville Md.), MHC Class I (M1/42, ATCC), Anti-IgD (JA12.5, ATCC, Rockville, Md.), Thymocyte (Thy)-1 (JIJ, ATCC), B220 (14.8, ATCC), Kappa light chain (187, ATCC), IL-2 Receptor (7D4, ATCC), Lyt-1 (7.313, ATCC) and CD23 (biotinylated B3B4) and incubated on ice for 30 minutes. 100 μl 10% BSA 0.1% sodium azide is added to each well, then the plates are centrifuged at 1200 rpm for 10 minutes. The liquid is removed by aspiration and the cell pellets are resuspended in 100 μl FACS Buffer, and centrifuged at 1200 rpm for 5 minutes. […] Samples are transferred to individual tubes and 10,000 cells are analyzed. Using the Lysis software (Becton Dickinson, Mountain View, Calif.) the mean channel log fluorescence and percent positive cells are determined for the entire cell population. […]

CCCCC(C)(O)C/C=C/[C@H]1[C@H](O)CC(=O)[C@@H]1C/C=C\CCCC(=O)OC (mixture of isomers) [(±) methyl 11α,16-dihydroxy-16-methyl-9-oxoprosta-5Z,13E-dien-1-oate]
Percentage Positive Cells (anti-IgD stimulated mice, 20 μg days 3 and 4, day 7 (PBS 14.3)): 23 ± 10% | Mean Channel Log Fluorescence (anti-IgD stimulated mice, 20 μg days 3 and 4, day 7 (PBS 97)): 98 ± 0 | Percentage Positive Cells (unstimulated mice, 20 μg (PBS 9.3)): 25.4 ± 3% | Mean Channel Log Fluorescence (unstimulated mice, 20 μg (PBS 91)): 92 ± 3
